These results are taken from patent US7115589B2, “Purine derivatives” (ARIAD Pharmaceuticals, Inc., priority 1999, dated 2006).

The structures appear in SMILES notation.

Molecule `CCOP(=O)(OCC)c1ccc(Nc2nc(C3CCCC3)nc3c2ncn3C(C)C)cc1` gave a melting point of 117 to 118 °C.

For orientation: melting point means the temperature, or range, at which the solid turns liquid.
